From US11596639B2, “Substituted indole Mcl-1 inhibitors” (Vanderbilt University, priority 2016, dated 2023)

Legend:
[1] = tested on: H929 human cancer cell lines; assay: Cellular viability / proliferation (Cell TiterGlo, 72 h); type: cell-based; settings: Homo sapiens, NCI-H929, 72 h, read-out: GI50 on cellular proliferation of H929 human cancer cell lines, H929 cells, 72 h, Cell TiterGlo, 10% FBS
How it was run: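 H929 cells plated at 1,000/well in 10% FBS medium received a 2-fold serial compound dilution (top 50 μM, DMSO <1%) 24 h later. After 72 h, viability was read by CellTiter-Glo luminescence. IC50 came from a four-parameter fit.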

Mcl-1 = Mcl-1 (Homo sapiens (Human), UniProt Q07820); assay: TR-FRET binding assay, FITC-Bak peptide and MBP-tagged Mcl-1; settings: read-out: Ki for Inhibition of Mcl-1 by TR-FRET assay
Protocol: Compounds are diluted in DMSO in a 16-point, semilog serial dilution scheme. […] The plate was mixed and incubated for 3 hours at room temperature. […] TR-FRET signal is plotted and IC50 and Ki values are calculated in the same manner as the fluorescence polarization anisotropy based competition assays.

Chain of Mcl-1 (Q07820 172-327): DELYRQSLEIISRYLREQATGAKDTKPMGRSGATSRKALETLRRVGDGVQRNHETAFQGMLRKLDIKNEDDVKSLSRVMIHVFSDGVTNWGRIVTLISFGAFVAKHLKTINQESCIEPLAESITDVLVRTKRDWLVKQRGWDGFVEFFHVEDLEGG

SMILES: C=Cc1ccnc(Cn2c(C(=O)O)cc3cc(C)cc(N4C[C@@H](C)n5c(c(CCCOc6cc(C)c(Cl)c(C)c6)c6ccc(Cl)c(-c7c(C)nn(C)c7C)c65)C4=O)c32)c1 [Example 514, (R)-7-(7-chloro-10-(3-(4-chloro-3,5-dimethylphenoxy)propyl)-4-methyl-1-oxo-6-(1,3,5-trimethyl-1H-pyrazol-4-yl)-3,4-dihydropyrazino[1,2-a]indol-2(1H)-yl)-5-methyl-1-((4-vinylpyridin-2-yl)methyl)-1H-indole-2-carboxylic acid]
- GI50 [1]: < 200 nM
- Ki (Mcl-1): < 0.2 nM

SMILES: COCCn1cc(C(=O)O)c2cc(OCCN3CCN(C)CC3)cc(N3C[C@@H](C)n4c(c(CCCOc5cc(C)c(Cl)c(C)c5)c5ccc(Cl)c(-c6c(C)nn(C)c6C)c54)C3=O)c21 [Example 676, (R)-7-(7-chloro-10-(3-(4-chloro-3,5-dimethylphenoxy)propyl)-4-methyl-1-oxo-6-(1,3,5-trimethyl-1H-pyrazol-4-yl)-3,4-dihydropyrazino[1,2-a]indol-2(1H)-yl)-1-(2-methoxyethyl)-5-(2-(4-methylpiperazin-1-yl)ethoxy)-1H-indole-3-carboxylic acid]
- GI50 [1]: 1100 nM
- Ki (Mcl-1): 0.56 nM

SMILES: COCCn1c(C(=O)O)cc2cc(COC)cc(N3C[C@@H](C)n4c(c(CCCOc5cc(C)c(Cl)c(C)c5)c5ccc(Cl)c(-c6c(C)nn(C)c6C)c54)C3=O)c21 [Example 677, (R)-7-(7-chloro-10-(3-(4-chloro-3,5-dimethylphenoxy)propyl)-4-methyl-1-oxo-6-(1,3,5-trimethyl-1H-pyrazol-4-yl)-3,4-dihydropyrazino[1,2-a]indol-2(1H)-yl)-1-(2-methoxyethyl)-5-(methoxymethyl)-1H-indole-2-carboxylic acid]
- GI50 [1]: < 200 nM
- Ki (Mcl-1): < 0.2 nM

SMILES: COCCn1cc(N2C[C@@H](C)n3c(c(CCCOc4cc(C)c(Cl)c(C)c4)c4ccc(Cl)c(-c5c(C)nn(C)c5C)c43)C2=O)c2cc(-c3ncn(CCN4CCOCC4)n3)ccc21 [Example 615, (R)-7-Chloro-10-(3-(4-chloro-3,5-dimethylphenoxy)propyl)-2-(1-(2-methoxyethyl)-5-(1-(2-morpholinoethyl)-1H-1,2,4-triazol-3-yl)-1H-indol-3-yl)-4-methyl-6-(1,3,5-trimethyl-1H-pyrazol-4-yl)-3,4-dihydropyrazino[1,2-a]indol-1(2H)-one]
- GI50 [1]: 370 nM
- Ki (Mcl-1): 9.6 nM

SMILES: Cc1cc(OCCCc2c3n(c4c(-c5c(C)cc(OCc6ccccn6)cc5C)c(Cl)ccc24)[C@H](C)CN(c2cn(C)c4ccc(C(=O)O)cc24)C3=O)cc(C)c1Cl [Example 497, (R)-3-(7-chloro-10-(3-(4-chloro-3,5-dimethylphenoxy)propyl)-6-(2,6-dimethyl-4-(pyridin-2-ylmethoxy)phenyl)-4-methyl-1-oxo-3,4-dihydropyrazino[1,2-a]indol-2(1H)-yl)-1-methyl-1H-indole-5-carboxylic acid]
- GI50 [1]: 1700 nM
- Ki (Mcl-1): 1.3 nM

SMILES: Cc1cc(OCCCc2c3n(c4c(-c5c(C)nn(C)c5C)c(Cl)ccc24)[C@H](C)CN(c2cc(CN4CCN(C)CC4)cc4cc(C(=O)O)n(C)c24)C3=O)cc(C)c1Cl [Example 544, (R)-7-(7-Chloro-10-(3-(4-chloro-3,5-dimethylphenoxy)propyl)-4-methyl-1-oxo-6-(1,3,5-trimethyl-1H-pyrazol-4-yl)-3,4-dihydropyrazino[1,2-a]indol-2(1H)-yl)-1-methyl-5-((4-methylpiperazin-1-yl)methyl)-1H-indole-2-carboxylic acid]
- GI50 [1]: 320 nM
- Ki (Mcl-1): < 0.2 nM

SMILES: Cc1cc(OCCCc2c3n(c4c(-c5c(C)nn(C)c5C)c(Cl)ccc24)[C@H](C)CN(c2cn(CCN4CCN(C)C(=O)C4)c4ccc(-c5ncn(C)n5)cc24)C3=O)cc(C)c1Cl [Example 603, (R)-7-Chloro-10-(3-(4-chloro-3,5-dimethylphenoxy)propyl)-4-methyl-2-(5-(1-methyl-1H-1,2,4-triazol-3-yl)-1-(2-(4-methyl-3-oxopiperazin-1-yl)ethyl)-1H-indol-3-yl)-6-(1,3,5-trimethyl-1H-pyrazol-4-yl)-3,4-dihydropyrazino[1,2-a]indol-1(2H)-one]
- GI50 [1]: < 200 nM
- Ki (Mcl-1): 0.89 nM

SMILES: COCc1cc(N2C[C@@H](C)n3c(c(CCCOc4cc(C)c(Cl)c(C)c4)c4ccc(Cl)c(-c5c(C)nn(C)c5C)c43)C2=O)c2c(c1)cc(C(=O)O)n2C [Example 607, (R)-7-(7-chloro-10-(3-(4-chloro-3,5-dimethylphenoxy)propyl)-4-methyl-1-oxo-6-(1,3,5-trimethyl-1H-pyrazol-4-yl)-3,4-dihydropyrazino[1,2-a]indol-2(1H)-yl)-5-(methoxymethyl)-1-methyl-1H-indole-2-carboxylic acid]
- GI50 [1]: < 200 nM
- Ki (Mcl-1): < 0.2 nM

SMILES: COC1CCN(Cc2cc(N3C[C@@H](C)n4c(c(CCCOc5cc(C)c(Cl)c(C)c5)c5ccc(Cl)c(-c6c(C)nn(C)c6C)c54)C3=O)c3c(c2)cc(C(=O)O)n3C)CC1 [Example 649, (R)-7-(7-chloro-10-(3-(4-chloro-3,5-dimethylphenoxy)propyl)-4-methyl-1-oxo-6-(1,3,5-trimethyl-1H-pyrazol-4-yl)-3,4-dihydropyrazino[1,2-a]indol-2(1H)-yl)-5-((4-methoxypiperidin-1-yl)methyl)-1-methyl-1H-indole-2-carboxylic acid]
- GI50 [1]: < 200 nM
- Ki (Mcl-1): < 0.2 nM

SMILES: Cc1cc(OCCCc2c3n(c4c(-c5c(C)nn(C)c5C)c(Cl)ccc24)[C@H](C)CN(c2cn(CCCl)c4ccc(-c5ncn(C)n5)cc24)C3=O)cc(C)c1Cl [Example 529, (R)-7-Chloro-10-(3-(4-chloro-3,5-dimethylphenoxy)propyl)-2-(1-(2-chloroethyl)-5-(1-methyl-1H-1,2,4-triazol-3-yl)-1H-indol-3-yl)-4-methyl-6-(1,3,5-trimethyl-1H-pyrazol-4-yl)-3,4-dihydropyrazino[1,2-a]indol-1(2H)-one]
- GI50 [1]: 520 nM
- Ki (Mcl-1): < 0.2 nM

SMILES: Cc1cc(N2C[C@@H](C)n3c(c(CCCOc4cc(C)c(Cl)c(C)c4)c4ccc(Cl)c(-c5c(C)nn(C)c5C)c43)C2=O)c2ncc(C(=O)O)cc2c1 [Example 658, (R)-8-(7-chloro-10-(3-(4-chloro-3,5-dimethylphenoxy)propyl)-4-methyl-1-oxo-6-(1,3,5-trimethyl-1H-pyrazol-4-yl)-3,4-dihydropyrazino[1,2-a]indol-2(1H)-yl)-6-methylquinoline-3-carboxylic acid]
- GI50 [1]: 250 nM
- Ki (Mcl-1): < 0.2 nM

SMILES: Cc1cc(N2C[C@@H](C)n3c(c(CCCOc4cc(C)c(Cl)c(C)c4)c4ccc(Cl)c(-c5c(C)nn(C)c5C)c43)C2=O)c2c(c1)cc(C(=O)O)n2CCOC(C)C [Example 578, (R)-7-(7-chloro-10-(3-(4-chloro-3,5-dimethylphenoxy)propyl)-4-methyl-1-oxo-6-(1,3,5-trimethyl-1H-pyrazol-4-yl)-3,4-dihydropyrazino[1,2-a]indol-2(1H)-yl)-1-(2-isopropoxyethyl)-5-methyl-1H-indole-2-carboxylic acid]
- GI50 [1]: 390 nM
- Ki (Mcl-1): < 0.2 nM

SMILES: Cc1cc(OCCCc2c3n(c4c(-c5c(C)nc(CN6CCN(C)CC6)nc5C)c(Cl)ccc24)[C@H](C)CN(c2cn(CCN(C)C)c4ccc(C(=O)O)cc24)C3=O)cc(C)c1Cl [Example 580, (R)-3-(7-chloro-10-(3-(4-chloro-3,5-dimethylphenoxy)propyl)-6-(4,6-dimethyl-2-((4-methylpiperazin-1-yl)methyl)pyrimidin-5-yl)-4-methyl-1-oxo-3,4-dihydropyrazino[1,2-a]indol-2(1H)-yl)-1-(2-(dimethylamino)ethyl)-1H-indole-5-carboxylic acid]
- GI50 [1]: 960 nM
- Ki (Mcl-1): < 0.2 nM

SMILES: Cc1cc(N2C[C@@H](C)n3c(c(CCCOc4cc(C)c(Cl)c(C)c4)c4ccc(Cl)c(-c5c(C)nn(C)c5C)c43)C2=O)c2c(c1)cc(C(=O)O)n2Cc1cccc(N2CCN(C)CC2)n1 [Example 516, (R)-7-(7-Chloro-10-(3-(4-chloro-3,5-dimethylphenoxy)propyl)-4-methyl-1-oxo-6-(1,3,5-trimethyl-1H-pyrazol-4-yl)-3,4-dihydropyrazino[1,2-a]indol-2(1H)-yl)-5-methyl-1-((6-(4-methylpiperazin-1-yl)pyridin-2-yl)methyl)-1H-indole-2-carboxylic acid]
- GI50 [1]: 330 nM
- Ki (Mcl-1): < 0.2 nM

SMILES: CCc1ccnc(Cn2c(C(=O)O)cc3cc(C)cc(N4C[C@@H](C)n5c(c(CCCOc6cc(C)c(Cl)c(C)c6)c6ccc(Cl)c(-c7c(C)nn(C)c7C)c65)C4=O)c32)c1 [Example 627, (R)-7-(7-chloro-10-(3-(4-chloro-3,5-dimethylphenoxy)propyl)-4-methyl-1-oxo-6-(1,3,5-trimethyl-1H-pyrazol-4-yl)-3,4-dihydropyrazino[1,2-a]indol-2(1H)-yl)-1-((4-ethylpyridin-2-yl)methyl)-5-methyl-1H-indole-2-carboxylic acid]
- GI50 [1]: < 200 nM
- Ki (Mcl-1): < 0.2 nM

SMILES: Cc1cc(N2C[C@@H](C)n3c(c(CCCOc4cc(C)c(Cl)c(C)c4)c4ccc(Cl)c(-c5c(C)n[nH]c5C)c43)C2=O)c2c(c1)cc(C(=O)O)n2Cc1ccccn1 [Example 719, (R)-7-(7-chloro-10-(3-(4-chloro-3,5-dimethylphenoxy)propyl)-6-(3,5-dimethyl-1H-pyrazol-4-yl)-4-methyl-1-oxo-3,4-dihydropyrazino[1,2-a]indol-2(1H)-yl)-5-methyl-1-(pyridin-2-ylmethyl)-1H-indole-2-carboxylic acid]
- GI50 [1]: 640 nM
- Ki (Mcl-1): < 0.2 nM
